Legend:
Assay type in all cases: cell-based, human
GDF15 [1] = experiment: GDF15 secretion (ELISA) by hiPSC-CMs upon cardiotoxic drug treatment; conditions: 48 h; for fold increase of media concentration of GDF15: sublethal and highest (10 µM) concentrations, normalized by DMSO-only control; for GDF15 protein concentration: 1 µM drug
From the text: As many anticancer drugs are cardiotoxic and GDF15 is a well-known biomarker for heart failure, we employed a human induced pluripotent stem cell-derived cardiomyocytes (hiPSC-CMs) model to investigate the effect of drug-induced cardiotoxicity on GDF15 expression in host tissues. To adequately replicate cardiotoxicity using this model, we selected drugs whose cardiotoxic effect in vivo is based on cytotoxicity to cardiomyocytes.
Figure 2 Effect of cardiotoxic drugs on hiPSC-CMs viability and GDF15 secretion and modes of action of applied drugs. (A) hiPSC-CMs viability after 48 h treatment with 20 cardiotoxic drugs. (B) Fold-change of GDF15 expression upon 48 h treatment with 20 cardiotoxic drugs and their reported modes of action. GDF15 expression upon treatment with 10 µM, sublethal drug concentrations and maximal GDF15 induction (from concentration series depicted in (C)). Mean fold-change of 4 biological replicates with a 95% confidence interval were normalized by DMSO-only control. (C) Drug-induced GDF15 expression for different drug concentrations. Fold-change of GDF15 protein concentration upon 48 h treatment with ten cardiotoxic drugs (marked with * in A and B).
(§1) Cardiotoxic drug (SCREEN-WELL® Cardiotoxicity library, BML-2850, ENZO) library was prepared by serial dilution of 10 mM stocks in DMSO to 9 different concentrations ranging from 0.001 to 10 mM, which were further diluted into assay plates to final concentrations ranging from 0.001 to 10 µM. […] The final concentration of DMSO for hiPSC-CMs assay was 0.1%. To investigate the influence of BET inhibitor treatment on doxorubicin induced GDF15 mRNA expression, hiPSC-CMs were pre-treated with 20 nM or 200 nM doxorubicin for 48 h and kept in medium without compound for 24 h before 24 h treatment with either 100 nM BI 894999 or 500 nM OTX015. […] Cancer cell lines were treated with 10 nM, 35 nM or 100 nM of BI 894999 for 4 h or 24 h (Supplementary Table S3).
(§2) For GDF15 mRNA quantification, total RNA was isolated from the cells using an RNeasy kit (Qiagen, 74106) to synthesize cDNA using a Taqman Reverse Transcription kit (Applied Biosystems, N8080234). Quantitative real-time PCR analysis was performed using QuantiNova SYBR Green PCR Kit (Qiagen, 208052) on a CFX96 Real-Time System (Bio-Rad) under the following amplification conditions: 95 °C for 2 min followed by 40 cycles of 95 °C for 5 s and 60 °C for 10 s. The primer sequences are GDF15-F: 5′-[…]-3′, GDF15-R: 5′-[…]-3′, ACTB-F: 5′-[…]-3′ and ACTB-R: 5′-[…]-3′. PCR data were analyzed using a modified relative expression software tool (REST) and the expression level of GDF15 gene was normalized to that of β-actin. For secreted GDF15 protein quantification, cell culture medium was collected after drug treatment and stored at − 20 °C until ELISA was performed using Human GDF-15 ELISA Kit (Abcam, ab155432) according to the manufacturer’s instruction. Resulting GDF15 concentrations were normalized to non-treated control and respective relative cell viability.

GDF15 [2] = experiment: GDF15 gene expression of NCI-60 cancer cell lines treated with 15 anticancer drugs (public data, linear regression); conditions: data ref 34; for induction of GDF15 on average: NCI-60 cancer cell lines; for ratio of responsive cell lines (GDF15 induction): all NCI-60 cell lines, responsive: slope > 0.02 and R-squared > 0.5 within 24 h
From the text: To get further insights into how chemotherapy influences GDF15 expression in cancer, we analyzed public gene expression data of NCI-60 cancer cell lines treated with 15 different anticancer drugs. We used linear regression to quantify the cell line’s drug-specific responsiveness regarding GDF15 induction and categorized the cell lines as “responsive” or “resistant”. Comparing the number of responsive cell lines per drug, we found the ratio of responsive cell lines ranged from 4% for sirolimus to 71% for sorafenib (Supplementary Figure S2). Drugs with DNA damaging properties tended to induce GDF15 more strongly than drugs with other modes of action.
Figure 3 NCI-60 cell line clustering. (A) Hierarchically clustered correlation matrix of GDF15 gene expression levels by NCI-60 cell lines upon 15 drug treatments. Pearson correlation coefficients were calculated evaluating linear regression slope of GDF15 expression within the first 24 h of drug treatment. Clustering of cell lines was performed using Weighted Pair Group Method with Arithmetic Mean (WPGMA) algorithm based on Pearson correlation coefficients. Four cell line clusters were identified. Tissue types of cell lines are color coded. (B) Drug-specific fraction of responsive NCI-60 cell lines in each identified cell line cluster for 15 anticancer drugs. Responsiveness was assumed when linear regression slope of GDF15 expression within 24 h of drug treatment was > 0.02 and R-squared > 0.5. (C) Predicted basally activated or inhibited pathways for the cell line cluster based on identified differences in gene expression.
We obtained basal gene expression values and mutational status of all cancer cell lines from our in-house cancer cell line database. Gene expression data of NCI-60 after compound treatment, basal protein expression, drug sensitivity data, gene dependency data, metabolite expression and compound specifications such as IC50 values and modes of action were collected from different studies and data bases, as described in the supplementary information.
Each NCI-60 cell line was assigned to an array containing 15 drug-specific linear regression slopes of GDF15 mean fold-change. We calculated the Pearson correlation coefficient for every cell line pair to build a 60 × 60 correlation matrix. For agglomerative hierarchical clustering, we applied a “Weighted Pair Group Method with Arithmetic Mean” (WPGMA) algorithm to the resulting correlation matrix. The identified clusters represent groups of cell lines that are closely positioned to each other in this 15-dimensional data set and therefore have more similarities regarding GDF15 expression upon treatment with the 15 drugs compared to cell lines of other clusters.
Supplementary Materials and Methods
Data collection of cancer cell line properties
Gene expression data of NCI-60 upon treatment with 15 anticancer compounds were collected from NCI-
60 Transcriptional Pharmacodynamics Workbench 11. […]

GDF15 [3] = experiment: Doxorubicin-induced GDF15 secretion in hiPSC-CMs, simultaneous treatment with BET inhibitors (ELISA); conditions: simultaneous 100 nM doxorubicin and 0.1 to 1000 nM BET inhibitor, 48 h
From the text: (§3) Host cells are known to contribute to elevated GDF15 levels in cachexia patients when exposed to drug toxicity. […] We plotted GDF15 fold-changes against the respective reported half maximal inhibitory concentrations (IC50) of each BET inhibitor for BRD2, BRD3 and BRD4, whenever available. GDF15 fold-change thereby meant the ratio of GDF15 expression induced by doxorubicin only and doxorubicin combined with BET inhibitor normalized to cell viability.
as §1, §2
Supplementary Figure S6. (A) Fold-change of GDF15 secretion by hiPSC-CMs after simultaneous
treatment with doxorubicin and seven BET Inhibitors for 48 h. Normalized to cell viability and non-treated […]

GDF15 [4] = experiment: Doxorubicin-induced GDF15 mRNA expression in hiPSC-CMs, successive treatment with BET inhibitors (qPCR)
From the text: as §3, §1
as §2, with “β-actin.” for “β-actin. For secreted GDF15 protein quantification, cell culture medium was collected after drug treatment and stored at − 20 °C until ELISA was performed using Human GDF-15 ELISA Kit (Abcam, ab155432) according to the manufacturer’s instruction. Resulting GDF15 concentrations were normalized to non-treated control and respective relative cell viability.”

`COc1cc(NS(C)(=O)=O)ccc1Nc1c2ccccc2nc2ccccc12` [Amsacrine] was tested, and the “fold increase of media concentration of GDF15” value (“fold increase” below) (GDF15 [1]) was “more than threefold”.
With `CC(C)C[C@H](NC(=O)[C@H](Cc1ccccc1)NC(=O)c1cnccn1)B(O)O` [Bortezomib] the “fraction of responsive cell lines in cluster B” value (GDF15 [2]; NCI-60 cluster B) was “all”.
For `Cc1sc2c(c1C)C(c1ccc(Cl)cc1)=N[C@@H](CC(N)=O)c1nnc(C)n1-2` [CPI203], the “effect on doxorubicin-induced GDF15 overexpression (secretion)” value (shortened to “effect … (secretion)”) (GDF15 [3]) was “suppressed”.
With `CC[C@@]1(O)C(=O)OCc2c1cc1n(c2=O)Cc2cc3ccccc3nc2-1` [Camptothecin] the “fold increase” value (GDF15 [1]) was “more than threefold”.
`COc1cccc2c1C(=O)c1c(O)c3c(c(O)c1C2=O)C[C@@](O)(C(C)=O)C[C@@H]3O[C@H]1C[C@H](N)[C@H](O)[C@H](C)O1` [Daunorubicin] was tested, and the GDF15 protein concentration (GDF15 [1]) was “exceeded the upper limit of quantification”.
For `COc1cccc2c1C(=O)c1c(O)c3c(c(O)c1C2=O)C[C@@](O)(C(=O)CO)C[C@@H]3O[C@H]1C[C@H](N)[C@H](O)[C@H](C)O1` [Doxorubicin], the “fold increase” value (GDF15 [1]) was “more than threefold”, the “fraction of responsive cell lines in cluster C” value (GDF15 [2]; NCI-60 cluster C) was 63.6% and the “increase of GDF15 expression on RNA level” value (GDF15 [4]; doxorubicin treatment (20 or 200 nM)) was “up to sevenfold”.
`COc1cc([C@@H]2c3cc4c(cc3[C@@H](O[C@@H]3O[C@@H]5CO[C@@H](C)O[C@H]5[C@H](O)[C@H]3O)[C@H]3COC(=O)[C@H]23)OCO4)cc(OC)c1O` [Etoposide] was tested, and the “fold increase” value (GDF15 [1]) was “more than threefold”.
In the case of `COc1cc2c(cc1-c1c(C)noc1C)ncc1[nH]c(=O)n([C@H](C)c3ccccn3)c12` [I-BET151], the “effect … (secretion)” value (GDF15 [3]) was “suppressed”.
In the case of `CC(=O)[C@]1(O)Cc2c(O)c3c(c(O)c2[C@@H](O[C@H]2C[C@H](N)[C@H](O)[C@H](C)O2)C1)C(=O)c1ccccc1C3=O` [Idarubicin], the GDF15 protein concentration (GDF15 [1]) was “exceeded the upper limit of quantification” and the “fold increase” value (GDF15 [1]) was “more than threefold”.
With `Cc1sc2c(c1C)C(c1ccc(Cl)cc1)=N[C@@H](CC(=O)Nc1ccc(O)cc1)c1nnc(C)n1-2` [OTX015] the “effect on doxorubicin-induced GDF15 overexpression (mRNA)” value (GDF15 [4]; BET inhibitor given subsequently to doxorubicin) was “suppressed” and the “effect … (secretion)” value (GDF15 [3]) was “suppressed”.
For `COc1ccccc1S(=O)(=O)Nc1ccc2c(c1)CN(C)C(=O)N2` [PFI-1], the “effect … (secretion)” value (GDF15 [3]) was “suppressed”.
`CCN(CC)CCNC(=O)c1c(C)[nH]c(/C=C2\C(=O)Nc3ccc(F)cc32)c1C` [Sunitinib] was tested, and the “induction of GDF15 on average” value (GDF15 [2]) was “did not lead to notable GDF15 regulation”.
With `Nc1ncn([C@@H]2O[C@H](CO)[C@@H](O)[C@H]2O)c(=O)n1` [azacytidine] the “fraction of responsive cell lines in cluster D” value (GDF15 [2]; NCI-60 cluster D) was “all”.
With `CO[C@H]1C[C@@H]2CC[C@@H](C)[C@@](O)(O2)C(=O)C(=O)N2CCCC[C@H]2C(=O)O[C@H]([C@H](C)C[C@@H]2CC[C@@H](O)[C@H](OC)C2)CC(=O)[C@H](C)/C=C(\C)[C@@H](O)[C@@H](OC)C(=O)[C@H](C)C[C@H](C)/C=C/C=C/C=C/1C` [sirolimus] the “ratio of responsive cell lines (GDF15 induction)” value (GDF15 [2]) was 4%.
For `CNC(=O)c1cc(Oc2ccc(NC(=O)Nc3ccc(Cl)c(C(F)(F)F)c3)cc2)ccn1` [sorafenib], the “induction of GDF15 on average” value (GDF15 [2]) was “threefold”, the “fraction of responsive cell lines in cluster A” value (GDF15 [2]; NCI-60 cluster A) was “all” and the “ratio of responsive cell lines (GDF15 induction)” value (GDF15 [2]) was 71%.
